Source: the Kinase Knowledgebase extract (Sharma et al. 2016)
Several values for one entry are separate records, joined by “and”; a condition that tells them apart may be missing. Identical values can stand only once.

Key:
[1] = biological target: PIK3CA (human) (UniProt P42336); test: Inhibition of PIK3CA Kinase Activity
[2] = biological target: PIK3CG (human) (UniProt P48736); test: Inhibition of PIK3CG Kinase Activity
[3] = biological target: PIK3CB (Human) (UniProt P42338); test: Inhibition of PIK3CB Kinase Activity
PIK3CB (Human), sequence (P42338 whole entry, looked up): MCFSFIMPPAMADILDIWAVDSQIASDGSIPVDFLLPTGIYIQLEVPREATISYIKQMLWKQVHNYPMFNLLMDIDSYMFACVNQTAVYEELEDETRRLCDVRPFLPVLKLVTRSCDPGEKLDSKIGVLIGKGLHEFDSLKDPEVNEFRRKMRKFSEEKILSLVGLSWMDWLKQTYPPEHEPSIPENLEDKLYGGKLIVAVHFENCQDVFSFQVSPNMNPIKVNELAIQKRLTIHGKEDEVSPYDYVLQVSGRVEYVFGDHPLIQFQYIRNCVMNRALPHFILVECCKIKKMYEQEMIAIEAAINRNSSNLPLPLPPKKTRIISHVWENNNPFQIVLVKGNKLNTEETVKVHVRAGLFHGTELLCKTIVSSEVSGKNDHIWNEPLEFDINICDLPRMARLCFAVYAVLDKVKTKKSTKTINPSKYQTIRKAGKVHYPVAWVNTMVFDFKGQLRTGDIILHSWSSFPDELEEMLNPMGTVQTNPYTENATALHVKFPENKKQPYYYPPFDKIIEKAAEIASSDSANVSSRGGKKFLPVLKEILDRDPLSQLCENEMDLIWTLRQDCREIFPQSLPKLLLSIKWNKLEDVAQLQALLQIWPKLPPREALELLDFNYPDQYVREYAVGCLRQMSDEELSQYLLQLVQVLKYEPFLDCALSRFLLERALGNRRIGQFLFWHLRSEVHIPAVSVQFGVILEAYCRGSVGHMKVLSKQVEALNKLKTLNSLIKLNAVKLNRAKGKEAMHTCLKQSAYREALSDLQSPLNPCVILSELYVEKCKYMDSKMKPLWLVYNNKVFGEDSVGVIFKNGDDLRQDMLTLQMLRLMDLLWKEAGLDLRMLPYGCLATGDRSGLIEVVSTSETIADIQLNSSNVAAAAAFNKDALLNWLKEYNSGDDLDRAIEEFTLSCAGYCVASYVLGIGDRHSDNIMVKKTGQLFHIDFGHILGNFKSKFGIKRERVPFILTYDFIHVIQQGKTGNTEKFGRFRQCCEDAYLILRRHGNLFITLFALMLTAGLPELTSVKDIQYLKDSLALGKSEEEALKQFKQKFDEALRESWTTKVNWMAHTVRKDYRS

[4] = biological target: PIK3CD (Human) (UniProt O00329); test: Inhibition of PIK3CD Kinase Activity
PIK3CD (Human), sequence (O00329 whole entry, looked up): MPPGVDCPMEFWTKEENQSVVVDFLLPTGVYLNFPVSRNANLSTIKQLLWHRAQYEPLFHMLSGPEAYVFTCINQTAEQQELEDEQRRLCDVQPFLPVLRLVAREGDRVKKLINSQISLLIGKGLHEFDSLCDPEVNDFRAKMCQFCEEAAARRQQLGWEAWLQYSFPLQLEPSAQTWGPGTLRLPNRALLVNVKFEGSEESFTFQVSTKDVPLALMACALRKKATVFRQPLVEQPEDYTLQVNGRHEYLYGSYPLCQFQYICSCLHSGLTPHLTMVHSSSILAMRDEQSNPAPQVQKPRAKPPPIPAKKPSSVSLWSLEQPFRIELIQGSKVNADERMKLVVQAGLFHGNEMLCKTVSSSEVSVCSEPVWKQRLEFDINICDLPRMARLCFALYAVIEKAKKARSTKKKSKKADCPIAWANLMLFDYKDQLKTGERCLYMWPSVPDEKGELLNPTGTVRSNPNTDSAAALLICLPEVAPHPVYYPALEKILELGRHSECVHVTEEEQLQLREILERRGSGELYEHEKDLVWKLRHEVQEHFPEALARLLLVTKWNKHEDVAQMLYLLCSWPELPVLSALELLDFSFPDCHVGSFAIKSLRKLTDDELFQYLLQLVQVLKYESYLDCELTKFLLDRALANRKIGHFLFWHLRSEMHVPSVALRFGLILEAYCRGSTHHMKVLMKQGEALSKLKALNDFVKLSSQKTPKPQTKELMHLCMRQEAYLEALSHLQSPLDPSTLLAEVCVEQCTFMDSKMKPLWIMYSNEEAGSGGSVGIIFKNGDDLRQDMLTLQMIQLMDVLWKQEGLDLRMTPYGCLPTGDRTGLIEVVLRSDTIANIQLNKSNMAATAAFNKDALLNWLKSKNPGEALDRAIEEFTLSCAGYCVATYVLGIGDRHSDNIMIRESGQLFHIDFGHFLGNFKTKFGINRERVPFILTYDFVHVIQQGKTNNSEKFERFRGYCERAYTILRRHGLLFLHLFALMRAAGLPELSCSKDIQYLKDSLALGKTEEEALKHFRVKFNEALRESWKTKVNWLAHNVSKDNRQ

PIK3CG (human), sequence (P48736 whole entry, looked up): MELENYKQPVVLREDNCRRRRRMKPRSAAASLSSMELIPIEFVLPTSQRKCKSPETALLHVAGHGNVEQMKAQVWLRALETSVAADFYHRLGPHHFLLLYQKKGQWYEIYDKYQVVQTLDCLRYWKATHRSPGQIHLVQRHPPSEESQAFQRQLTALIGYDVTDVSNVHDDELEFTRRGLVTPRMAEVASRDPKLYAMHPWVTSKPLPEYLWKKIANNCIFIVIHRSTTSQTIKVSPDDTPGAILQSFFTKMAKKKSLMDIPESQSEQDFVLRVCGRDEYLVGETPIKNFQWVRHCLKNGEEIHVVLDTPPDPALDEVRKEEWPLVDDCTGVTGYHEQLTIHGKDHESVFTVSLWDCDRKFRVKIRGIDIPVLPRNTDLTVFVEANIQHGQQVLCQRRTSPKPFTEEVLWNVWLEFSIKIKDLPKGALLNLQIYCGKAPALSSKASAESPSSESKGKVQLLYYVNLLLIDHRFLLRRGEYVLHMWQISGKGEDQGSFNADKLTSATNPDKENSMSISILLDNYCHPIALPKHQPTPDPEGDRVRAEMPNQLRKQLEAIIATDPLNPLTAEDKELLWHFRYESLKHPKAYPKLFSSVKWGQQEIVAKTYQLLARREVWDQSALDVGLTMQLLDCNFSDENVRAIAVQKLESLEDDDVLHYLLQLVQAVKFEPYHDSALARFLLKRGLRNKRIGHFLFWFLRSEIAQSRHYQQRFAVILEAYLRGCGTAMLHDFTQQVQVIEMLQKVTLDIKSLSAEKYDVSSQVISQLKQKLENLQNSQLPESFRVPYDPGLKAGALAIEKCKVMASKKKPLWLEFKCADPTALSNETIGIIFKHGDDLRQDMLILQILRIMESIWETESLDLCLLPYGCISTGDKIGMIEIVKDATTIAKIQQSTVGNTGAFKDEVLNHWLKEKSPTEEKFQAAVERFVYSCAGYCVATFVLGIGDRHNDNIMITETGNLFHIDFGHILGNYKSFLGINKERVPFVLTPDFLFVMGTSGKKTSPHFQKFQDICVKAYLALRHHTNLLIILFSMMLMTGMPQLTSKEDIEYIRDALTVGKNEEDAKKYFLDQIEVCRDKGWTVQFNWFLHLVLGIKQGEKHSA
PIK3CA (human), sequence (P42336 whole entry, looked up): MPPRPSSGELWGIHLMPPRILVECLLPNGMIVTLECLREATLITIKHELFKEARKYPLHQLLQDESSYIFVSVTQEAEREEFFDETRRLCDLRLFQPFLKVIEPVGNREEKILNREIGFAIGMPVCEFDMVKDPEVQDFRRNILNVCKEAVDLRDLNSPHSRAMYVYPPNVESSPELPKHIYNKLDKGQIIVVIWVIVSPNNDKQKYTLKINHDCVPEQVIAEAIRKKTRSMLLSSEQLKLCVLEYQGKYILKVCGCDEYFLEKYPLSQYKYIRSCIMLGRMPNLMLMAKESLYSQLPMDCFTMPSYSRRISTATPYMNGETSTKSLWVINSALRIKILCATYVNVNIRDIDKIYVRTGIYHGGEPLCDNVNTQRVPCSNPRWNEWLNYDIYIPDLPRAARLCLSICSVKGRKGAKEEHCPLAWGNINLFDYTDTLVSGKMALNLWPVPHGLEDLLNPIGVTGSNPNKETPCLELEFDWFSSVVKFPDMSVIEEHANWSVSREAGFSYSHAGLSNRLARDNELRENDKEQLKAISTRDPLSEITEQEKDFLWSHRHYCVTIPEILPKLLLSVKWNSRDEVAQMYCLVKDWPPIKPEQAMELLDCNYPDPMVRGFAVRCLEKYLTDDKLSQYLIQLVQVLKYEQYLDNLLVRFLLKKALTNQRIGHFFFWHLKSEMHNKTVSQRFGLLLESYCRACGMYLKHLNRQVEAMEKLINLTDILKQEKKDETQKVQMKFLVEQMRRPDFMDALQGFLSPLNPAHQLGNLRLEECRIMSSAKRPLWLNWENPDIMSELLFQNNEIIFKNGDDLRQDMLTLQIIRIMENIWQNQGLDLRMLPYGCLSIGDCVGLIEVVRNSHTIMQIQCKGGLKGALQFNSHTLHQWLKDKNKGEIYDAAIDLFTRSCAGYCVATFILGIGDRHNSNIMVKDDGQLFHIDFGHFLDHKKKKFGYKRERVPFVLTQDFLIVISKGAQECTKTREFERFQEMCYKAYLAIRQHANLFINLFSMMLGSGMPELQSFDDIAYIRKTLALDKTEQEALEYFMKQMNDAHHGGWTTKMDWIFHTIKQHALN

IC50 [1] | IC50 [2] | IC50 [3] [µM] | IC50 [4] [µM] | Compound
5 µM and 0.784 µM | 3.5 µM and 3.24 µM |  |  | Cc1cc(C(C)Nc2ccccc2)c2nc(N3CCOCC3)cc(=O)n2c1 (stereo unspecified)
0.301 µM | 9.07 µM | 2.65 | 0.333 | CC(=O)Nc1cccc(-c2nc(N3CCOCC3)c3oc4ncccc4c3n2)c1
